{
  "source": "ChEMBL document CHEMBL1155771",
  "about": "“Emergence of KPC-2 and KPC-3 in carbapenem-resistant Klebsiella pneumoniae strains in an Israeli hospital” (2007)",
  "key": {"[1]": {"tested_on": "Klebsiella pneumoniae", "test": "Antibacterial activity against carbapenem-resistant Klebsiella pneumoniae 469 isolate producing KPC2, OXA4 and CTX-M-10 carbapenemases", "assay_type": "functional"}, "[2]": {"tested_on": "Klebsiella pneumoniae", "test": "Antibacterial activity against carbapenem-resistant Klebsiella pneumoniae 490 isolate producing KPC3 and TEM1 carbapenemases", "assay_type": "functional"}, "[3]": {"tested_on": "Escherichia coli", "test": "Antibacterial activity against carbapenem-resistant blaKPC-encoding plasmid harboring Escherichia coli GeneHogs transformant of Klebsiella pneumoniae 490 producing KPC3 and TEM1 carbapenemases"}, "[4]": {"tested_on": "Escherichia coli", "test": "Antibacterial activity against carbapenem-resistant blaKPC-encoding plasmid harboring Escherichia coli GeneHogs transformants of Klebsiella pneumoniae 469 producing KPC2, OXA4 and CTX-M-10 carbapenemases"}, "[5]": {"tested_on": "Escherichia coli", "test": "Antibacterial activity against sEscherichia coli GeneHogs recipient strain without blaKPC-encoding plasmid"}},
  "data": [
    {"molecule": "C[C@@H](O)[C@H]1C(=O)N2C(C(=O)O)=C(SCCNC=N)C[C@H]12", "note": "[IMIPENEM ANHYDROUS]", "values": [
      {"measurement": "MIC", "setting": "[1]", "value": 16, "unit": "µg/mL"},
      {"measurement": "MIC", "setting": "[2]", "value": 32, "unit": "µg/mL"},
      {"measurement": "MIC", "setting": "[3]", "value": 4, "unit": "µg/mL"},
      {"measurement": "MIC", "setting": "[4]", "value": 4, "unit": "µg/mL"},
      {"measurement": "MIC", "setting": "[5]", "value": "< 0.25", "unit": "µg/mL"}
    ]},
    {"molecule": "O=C(O)c1cn(C2CC2)c2cc(N3CCNCC3)c(F)cc2c1=O", "note": "[CIPROFLOXACIN]", "values": [
      {"measurement": "MIC", "setting": "[5]", "value": "< 0.25", "unit": "µg/mL"}
    ]},
    {"molecule": "COLISTIN", "values": [
      {"measurement": "MIC", "setting": "[1]", "value": 0.25, "unit": "µg/mL"},
      {"measurement": "MIC", "setting": "[2]", "value": 0.25, "unit": "µg/mL"}
    ]},
    {"molecule": "NCC[C@H](O)C(=O)N[C@@H]1C[C@H](N)[C@@H](O[C@H]2O[C@H](CN)[C@@H](O)[C@H](O)[C@H]2O)[C@H](O)[C@H]1O[C@H]1O[C@H](CO)[C@@H](O)[C@H](N)[C@H]1O", "note": "[AMIKACIN]", "values": [
      {"measurement": "MIC", "setting": "[1]", "value": 4, "unit": "µg/mL"},
      {"measurement": "MIC", "setting": "[2]", "value": "> 64", "unit": "µg/mL"},
      {"measurement": "MIC", "setting": "[3]", "value": "< 2", "unit": "µg/mL"},
      {"measurement": "MIC", "setting": "[4]", "value": 16, "unit": "µg/mL"},
      {"measurement": "MIC", "setting": "[5]", "value": "< 2", "unit": "µg/mL"}
    ]},
    {"molecule": "C[C@H]1[C@H](NC(=O)/C(=N\\OC(C)(C)C(=O)O)c2csc(N)n2)C(=O)N1S(=O)(=O)O", "note": "[AZTREONAM]", "values": [
      {"measurement": "MIC", "setting": "[4]", "value": 32, "unit": "µg/mL"},
      {"measurement": "MIC", "setting": "[5]", "value": "< 1", "unit": "µg/mL"}
    ]},
    {"molecule": "CN(C)c1cc(NC(=O)CNC(C)(C)C)c(O)c2c1C[C@H]1C[C@H]3[C@H](N(C)C)C(O)=C(C(N)=O)C(=O)[C@@]3(O)C(O)=C1C2=O", "note": "[TIGECYCLINE]", "values": [
      {"measurement": "MIC", "setting": "[1]", "value": 2, "unit": "µg/mL"},
      {"measurement": "MIC", "setting": "[2]", "value": 2, "unit": "µg/mL"},
      {"measurement": "MIC", "setting": "[3]", "value": 0.5, "unit": "µg/mL"},
      {"measurement": "MIC", "setting": "[4]", "value": 0.5, "unit": "µg/mL"},
      {"measurement": "MIC", "setting": "[5]", "value": 0.016, "unit": "µg/mL"}
    ]},
    {"molecule": "C[C@@H](O)[C@H]1C(=O)N2C(C(=O)O)=C(S[C@@H]3CN[C@H](C(=O)Nc4cccc(C(=O)O)c4)C3)[C@H](C)[C@H]12", "values": [
      {"measurement": "MIC", "setting": "[1]", "value": 16, "unit": "µg/mL"},
      {"measurement": "MIC", "setting": "[2]", "value": 64, "unit": "µg/mL"},
      {"measurement": "MIC", "setting": "[3]", "value": 2, "unit": "µg/mL"},
      {"measurement": "MIC", "setting": "[4]", "value": 4, "unit": "µg/mL"},
      {"measurement": "MIC", "setting": "[5]", "value": "< 0.25", "unit": "µg/mL"}
    ]},
    {"molecule": "CO/N=C(\\C(=O)N[C@@H]1C(=O)N2C(C(=O)O)=C(CSc3nc(=O)c(O)nn3C)CS[C@H]12)c1csc(N)n1", "note": "[CEFTRIAXONE]", "values": [
      {"measurement": "MIC", "setting": "[1]", "value": "> 64", "unit": "µg/mL"},
      {"measurement": "MIC", "setting": "[2]", "value": "> 64", "unit": "µg/mL"},
      {"measurement": "MIC", "setting": "[3]", "value": 8, "unit": "µg/mL"},
      {"measurement": "MIC", "setting": "[4]", "value": "> 64", "unit": "µg/mL"},
      {"measurement": "MIC", "setting": "[5]", "value": "< 1", "unit": "µg/mL"}
    ]},
    {"molecule": "CC(C)(O/N=C(\\C(=O)N[C@@H]1C(=O)N2C(C(=O)[O-])=C(C[n+]3ccccc3)CS[C@H]12)c1csc(N)n1)C(=O)O", "note": "[CEFTAZIDIME]", "values": [
      {"measurement": "MIC", "setting": "[1]", "value": "> 64", "unit": "µg/mL"},
      {"measurement": "MIC", "setting": "[2]", "value": "> 64", "unit": "µg/mL"},
      {"measurement": "MIC", "setting": "[3]", "value": 16, "unit": "µg/mL"},
      {"measurement": "MIC", "setting": "[4]", "value": "> 64", "unit": "µg/mL"},
      {"measurement": "MIC", "setting": "[5]", "value": "< 1", "unit": "µg/mL"}
    ]},
    {"molecule": "CO/N=C(\\C(=O)N[C@@H]1C(=O)N2C(C(=O)[O-])=C(C[N+]3(C)CCCC3)CS[C@H]12)c1csc(N)n1", "values": [
      {"measurement": "MIC", "setting": "[1]", "value": "> 64", "unit": "µg/mL"},
      {"measurement": "MIC", "setting": "[2]", "value": "> 64", "unit": "µg/mL"},
      {"measurement": "MIC", "setting": "[5]", "value": "< 1", "unit": "µg/mL"}
    ]},
    {"molecule": "CCN1CCN(C(=O)N[C@@H](C(=O)N[C@@H]2C(=O)N3[C@@H]2SC(C)(C)[C@@H]3C(=O)O)c2ccccc2)C(=O)C1=O", "note": "[PIPERACILLIN]", "values": [
      {"measurement": "MIC", "setting": "[1]", "value": "> 128", "unit": "µg/mL"},
      {"measurement": "MIC", "setting": "[2]", "value": "> 128", "unit": "µg/mL"},
      {"measurement": "MIC", "setting": "[3]", "value": "> 128", "unit": "µg/mL"},
      {"measurement": "MIC", "setting": "[4]", "value": "> 128", "unit": "µg/mL"},
      {"measurement": "MIC", "setting": "[5]", "value": "< 4", "unit": "µg/mL"}
    ]},
    {"molecule": "C[C@@H](O)[C@H]1C(=O)N2C(C(=O)O)=C(S[C@@H]3CN[C@H](C(=O)N(C)C)C3)[C@H](C)[C@H]12", "note": "[MEROPENEM]", "values": [
      {"measurement": "MIC", "setting": "[1]", "value": 8, "unit": "µg/mL"},
      {"measurement": "MIC", "setting": "[2]", "value": 32, "unit": "µg/mL"},
      {"measurement": "MIC", "setting": "[3]", "value": 2, "unit": "µg/mL"},
      {"measurement": "MIC", "setting": "[4]", "value": 4, "unit": "µg/mL"},
      {"measurement": "MIC", "setting": "[5]", "value": "< 0.25", "unit": "µg/mL"}
    ]}
  ]
}
